Measurements published in patent US9302999B2, “Substituted triazoles as herbicides” (E. I. DU PONT DE NEMOURS AND COMPANY, priority 2012, dated 2016).

How the values were obtained:
Type in all cases: in vivo
[1] = system: ryegrass, Italian (Italian ryegrass, Lolium multiflorum); experiment: Test D pre-/postemergence: ryegrass, Italian
Procedure, shortened: (§1)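 Pre- and postemergence herbicide screen. Soil for pre: silt loam; post medium: peat moss, vermiculite, wetting agent, starter nutrients. Plant stage at post: 1- to 4-leaf. Readout: visual % control, 14–21 days.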

[2] = system: radish, wild (wild radish, Raphanus raphanistrum); experiment: Test D pre-/postemergence: radish, wild
Procedure, shortened: as §1

[3] = system: blackgrass (Alopecurus myosuroides); experiment: Test D pre-/postemergence: blackgrass
Procedure, shortened: as §1

[4] = system: velvetleaf (Abutilon theophrasti); experiment: Test F pre-/postemergence: velvetleaf; conditions: Preemergence
Procedure, shortened: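 Preemergence treatment of seeds sown in silt loam soil, and postemergence treatment of plants 2–18 cm tall (1- to 4-leaf stage), with compounds in non-phytotoxic solvent plus surfactant. Greenhouse 14–21 days, then visual rating versus controls on 0–100 scale (100 = complete control).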

[5] = system: Russian thistle (Salsola iberica); experiment: Test D pre-/postemergence: Russian thistle; conditions: Postemergence; for Plant response rating, Russian Thistle: 16 g ai/ha, scale 0 to 100
Procedure, shortened: as §1

[6] = system: galium (catchweed bedstraw, Galium aparine); experiment: Test D pre-/postemergence: galium; conditions: Postemergence; for Plant response rating, Galium: 16 g ai/ha, scale 0 to 100
Procedure, shortened: as §1

[7] = system: foxtail, giant (giant foxtail, Setaria faberii); experiment: Test F pre-/postemergence: foxtail, giant; conditions: Preemergence
Text: Seeds of plant species selected from corn (Zea mays), soybean (Glycine max), velvetleaf (Abutilon theophrasti), lambsquarters (Chenopodium album), poinsettia, wild (wild poinsettia, Euphorbia heterophylla), pigweed, palmer (palmer pigweed, Amaranthus palmeri), waterhemp (common waterhemp, Amaranthus rudis), surinam grass (Brachiaria decumbens), crabgrass, Brazil (Brazilian crabgrass, Digitaria horizontalis), panicum, fall (fall panicum Panicum dichotomiflorum), crabgrass, large (large crabgrass, Digitaria sanguinalis), foxtail, giant (giant foxtail, Setaria faberii), foxtail, green (green foxtail Setaria viridis), goosegrass (Eleusine indica), ragweed (common ragweed, Ambrosia elatior), barnyardgrass (Echinochloa crus-galli), sandbur (southern sandbur, Cenchrus echinatus), arrowleaf sida (Sida rhombifolia), ryegrass, Italian (Italian ryegrass, Lolium multiflorum), dayflower, VA (Virginia (VA) dayflower, Commelina virginica), field bindweed (Convolvulus arvensis), cocklebur (common cocklebur, Xanthium strumarium), morningglory (Ipomoea coccinea), nightshade (eastern black nightshade, Solanum ptycanthum), kochia (Kochia scoparia), nutsedge, yellow (yellow nutsedge, Cyperus esculentus), johnsongrass (Sorghum halepense), smartweed (ladysthumb smartweed, Polygonum persicaria), and beggarticks (hairy beggarticks, Bidens pilosa), were planted into a silt loam soil and treated preemergence with test chemicals formulated in a non-phytotoxic solvent mixture which included a surfactant. At the same time, plants selected from these crop and weed species and also pigweed (Amaranthus retroflexus), waterhemp_RES1 (ALS/Triazine resistant common waterhemp, Amaranthus rudis) and waterhemp_RES2 (ALS/HPPD resistant common waterhemp, Amaranthus rudis) were planted in pots containing a planting medium comprising spaghnum peat moss, vermiculite, wetting agent and starter nutrients treated with postemergence applications of some of the test chemicals formulated in the same manner. Plants ranged in height from 2 to 18 cm for postemergence treatments (1- to 4-leaf stage).
Treated plants and controls were maintained in a greenhouse for 14 to 21 days, after which time all species were compared to controls and visually evaluated. Plant response ratings, summarized in Table E, are based on a scale of 0 to 100 where 0 is no effect and 100 is complete control. A dash (-) response means no test result.

[8] = Postemergence, 31 g ai/ha, scale 0 to 100 (0 no effect, 100 complete control)
[9] = Postemergence, 62 g ai/ha, scale 0 to 100 (0 no effect, 100 complete control)
[10] = Postemergence, 125 g ai/ha, scale 0 to 100, 0 no effect, 100 complete control
[11] = Postemergence, 16 g ai/ha, scale 0 to 100
[12] = Preemergence, 16 g ai/ha, scale 0 to 100, 0 no effect, 100 complete control
[13] = Preemergence, 31 g ai/ha, scale 0 to 100, 0 no effect, 100 complete control
[14] = Preemergence, 62 g ai/ha, scale 0 to 100
[15] = Preemergence, 125 g ai/ha, scale 0 to 100
[16] = 16 g ai/ha, scale 0 to 100, 0 no effect, 100 complete control
[17] = 31 g ai/ha, scale 0 to 100, 0 no effect, 100 complete control
[18] = 31 g ai/ha, scale 0 to 100 (0 no effect, 100 complete control)
[19] = 62 g ai/ha, scale 0 to 100 (0 no effect, 100 complete control)
[20] = 125 g ai/ha, scale 0 to 100, 0 no effect, 100 complete control
[21] = 8 g ai/ha, scale 0 to 100, 0 no effect, 100 complete control

Cc1nn(-c2ccc(C(F)(F)F)c(F)c2)nc1Oc1ccnc(C(F)(F)F)c1 [Compound 148]
Plant response rating: Ryegrass, Italian [1, 8]: 15
Plant response rating: Ryegrass, Italian [1, 9]: 20
Plant response rating: Ryegrass, Italian [1, 10]: 20
Plant response rating, Ryegrass, Italian [1, 11]: 5
Plant response rating, Ryegrass, Italian [1, 12]: 0
Plant response rating, Ryegrass, Italian [1, 13]: 5
Plant response rating, Ryegrass, Italian [1, 14]: 5
Plant response rating, Ryegrass, Italian [1, 15]: 35
Plant response rating: Radish, Wild [2, 8]: 100
Plant response rating: Radish, Wild [2, 9]: 100
Plant response rating: Radish, Wild [2, 10]: 100
Plant response rating, Radish, Wild [2, 11]: 90
Plant response rating, Radish, Wild [2, 12]: 10
Plant response rating, Radish, Wild [2, 13]: 20
Plant response rating, Radish, Wild [2, 14]: 100
Plant response rating, Radish, Wild [2, 15]: 100
Plant response rating: Blackgrass [3, 8]: 15
Plant response rating: Blackgrass [3, 9]: 30
Plant response rating: Blackgrass [3, 10]: 65
Plant response rating, Blackgrass [3, 11]: 10
Plant response rating, Blackgrass [3, 12]: 0
Plant response rating, Blackgrass [3, 13]: 10
Plant response rating, Blackgrass [3, 14]: 5
Plant response rating, Blackgrass [3, 15]: 5
Plant response rating, Velvetleaf [4, 16]: 0
Plant response rating, Velvetleaf [4, 17]: 0
Plant response rating, Velvetleaf ([4]; 125 g ai/ha, scale 0 to 100): 25
Plant response rating, Velvetleaf ([4]; 250 g ai/ha, scale 0 to 100): 65
Plant response rating: Russian Thistle [5, 18]: 75
Plant response rating: Russian Thistle [5, 19]: 85
Plant response rating: Russian Thistle [5, 20]: 75
Plant response rating, Russian Thistle [5]: 65
Plant response rating: Galium [6, 18]: 70
Plant response rating: Galium [6, 19]: 70
Plant response rating: Galium [6, 20]: 75
Plant response rating, Galium [6]: 60
Plant response rating, Foxtail, Giant [7, 16]: 25
Plant response rating, Foxtail, Giant [7, 17]: 95
Plant response rating, Foxtail, Giant ([7]; 62 g ai/ha, scale 0 to 100): 100
Plant response rating, Foxtail, Giant ([7]; 125 g ai/ha, scale 0 to 100): 100
Plant response rating, Foxtail, Giant ([7]; 250 g ai/ha, scale 0 to 100): 100

CCc1nn(-c2ccc(C(F)(F)F)cc2)nc1Cc1ccnc(C(F)(F)F)c1 [Compound 155]
Plant response rating: Ryegrass, Italian [1, 8]: 15
Plant response rating: Ryegrass, Italian [1, 9]: 25
Plant response rating: Ryegrass, Italian [1, 10]: 60
Plant response rating, Ryegrass, Italian [1, 11]: 5
Plant response rating, Ryegrass, Italian [1, 12]: 0
Plant response rating, Ryegrass, Italian [1, 13]: 0
Plant response rating, Ryegrass, Italian [1, 14]: 10
Plant response rating, Ryegrass, Italian [1, 15]: 65
Plant response rating: Radish, Wild [2, 8]: 95
Plant response rating: Radish, Wild [2, 9]: 95
Plant response rating: Radish, Wild [2, 10]: 100
Plant response rating, Radish, Wild [2, 11]: 85
Plant response rating, Radish, Wild [2, 12]: 100
Plant response rating, Radish, Wild [2, 13]: 95
Plant response rating, Radish, Wild [2, 14]: 100
Plant response rating, Radish, Wild [2, 15]: 100
Plant response rating: Blackgrass [3, 8]: 50
Plant response rating: Blackgrass [3, 9]: 60
Plant response rating: Blackgrass [3, 10]: 85
Plant response rating, Blackgrass [3, 11]: 5
Plant response rating, Blackgrass [3, 12]: 5
Plant response rating, Blackgrass [3, 13]: 10
Plant response rating, Blackgrass [3, 14]: 20
Plant response rating, Blackgrass [3, 15]: 70
Plant response rating, Velvetleaf ([4]; 125 g ai/ha, scale 0 to 100): 98
Plant response rating, Velvetleaf ([4]; 250 g ai/ha, scale 0 to 100): 98
Plant response rating: Russian Thistle [5, 18]: 80
Plant response rating: Russian Thistle [5, 19]: 85
Plant response rating: Russian Thistle [5, 20]: 85
Plant response rating, Russian Thistle [5]: 70
Plant response rating: Galium [6, 18]: 70
Plant response rating: Galium [6, 19]: 70
Plant response rating: Galium [6, 20]: 75
Plant response rating, Galium [6]: 65
Plant response rating, Foxtail, Giant ([7]; 62 g ai/ha, scale 0 to 100): 98
Plant response rating, Foxtail, Giant ([7]; 125 g ai/ha, scale 0 to 100): 100
Plant response rating, Foxtail, Giant ([7]; 250 g ai/ha, scale 0 to 100): 100

CCOc1nn(-c2ccc(F)cc2)nc1Cc1ccnc(C(F)(F)F)c1 [Compound 196, 4-[[5-ethoxy-2-(4-fluorophenyl)-2H-1,2,3-triazol-4-yl]methyl]-2-(trifluoromethyl)pyridine]
Plant response rating: Ryegrass, Italian [1, 8]: 15
Plant response rating: Ryegrass, Italian [1, 9]: 30
Plant response rating: Ryegrass, Italian [1, 10]: 75
Plant response rating, Ryegrass, Italian [1, 11]: 5
Plant response rating, Ryegrass, Italian [1, 12]: 5
Plant response rating, Ryegrass, Italian [1, 13]: 10
Plant response rating, Ryegrass, Italian [1, 14]: 60
Plant response rating, Ryegrass, Italian [1, 15]: 100
Plant response rating: Radish, Wild [2, 8]: 100
Plant response rating: Radish, Wild [2, 9]: 100
Plant response rating: Radish, Wild [2, 10]: 100
Plant response rating, Radish, Wild [2, 11]: 65
Plant response rating, Radish, Wild [2, 12]: 50
Plant response rating, Radish, Wild [2, 13]: 20
Plant response rating, Radish, Wild [2, 14]: 70
Plant response rating, Radish, Wild [2, 15]: 100
Plant response rating: Blackgrass [3, 8]: 65
Plant response rating: Blackgrass [3, 9]: 85
Plant response rating: Blackgrass [3, 10]: 80
Plant response rating, Blackgrass [3, 11]: 15
Plant response rating, Blackgrass [3, 12]: 10
Plant response rating, Blackgrass [3, 13]: 20
Plant response rating, Blackgrass [3, 14]: 100
Plant response rating, Blackgrass [3, 15]: 100
Plant response rating, Velvetleaf [4, 21]: 0
Plant response rating, Velvetleaf [4, 16]: 10
Plant response rating, Velvetleaf [4, 17]: 20
Plant response rating, Velvetleaf ([4]; 125 g ai/ha, scale 0 to 100): 95
Plant response rating: Russian Thistle [5, 18]: 90
Plant response rating: Russian Thistle [5, 19]: 80
Plant response rating: Russian Thistle [5, 20]: 75
Plant response rating, Russian Thistle [5]: 80
Plant response rating: Galium [6, 18]: 85
Plant response rating: Galium [6, 19]: 70
Plant response rating: Galium [6, 20]: 90
Plant response rating, Galium [6]: 70
Plant response rating, Foxtail, Giant [7, 21]: 5
Plant response rating, Foxtail, Giant [7, 16]: 85
Plant response rating, Foxtail, Giant [7, 17]: 98
Plant response rating, Foxtail, Giant ([7]; 62 g ai/ha, scale 0 to 100): 98
Plant response rating, Foxtail, Giant ([7]; 125 g ai/ha, scale 0 to 100): 100
